Measurements taken from patent US20200124597A1, “INDICATOR RELEASE SYSTEM FOR THE DETECTION OF AN ANALYTE IN A FOODSTUFF, TEST STRIP THEREFOR, AND ANALYSIS METHOD” (Bundesrepublik Deutschland, vertreten durch die …, priority 2017, published 2020).

How the values were obtained:
[1] = system: rabbit antisera against the hapten sulfathiazole (STZ), capping antibody; assay: Biphasic extraction assay: fluorescence of CHCl3 phase after dye extraction from M7-A1@B suspensions in raw milk; format: binding
Protocol: (§1) Capping of the material was performed following the same conditions as for the preparation of M4-A1 @B, but in this case 1 mg of the mesoporous silica was suspended in 450 μL of PBS containing 360 ppm of BODIPY-PEG and 2 μL of the serum for 30 min. Thereafter, 50 μL of BSA solution (5%) were added to the suspensions and stirred for another 1.5 h. […] Before centrifuging the suspension in the last washing cycle, it was divided into 10 fractions, which were dried separately for 1 h in the vacuum at room temperature and stored in the fridge, yielding 10 fractions of ca. 100 μg of M7-A1@B.
Next, the effect of the concentration of STZ and SPY was studied. For this purpose, we repeated the procedure but added different concentrations of the corresponding sulfonamide into each fraction and took an aliquot from the chloroform phase after 10 min of reaction (FIG. 10). In this case, milk stored in the fridge for 5 and 7 d was used. It is obvious that a highly sensitive response could be found in both cases, with an LOQ of 0.5±0.1 ppb and an IC50 of 0.8±0.1 ppb for STZ. For SPY, both the fluorescence increase and the sensitivity are lower (LOQ: 4.6±2.2 ppb, IC50: 16.2±6.9 ppb).
The red points were classified as outliers and not considered in the fit (N=2, only one repetition shown).
The sensitivity could further be improved by increasing the number of washing cycles of the material before use, although the fluorescence enhancement is lower due to partial dye removal during continued washing. […] Furthermore, the amount of dye released in the working range of the assay at lower STZ concentrations (100 ppt) is at least 100 times higher, preferably 200-times higher than that of antibody displaced, decreasing to 80-times at concentrations higher than 50 ppb, which is a remarkable sign of signal amplification especially in the desired low-concentration range.

[2] = system: rabbit antisera against the hapten sulfathiazole (STZ), capping antibody; assay: Lateral flow test strips spotted with M4-A1@B, developed in raw milk spiked with STZ, fluorescence reader; format: binding; conditions: M4-A1@B on nitrocellulose strips, ratio FB/(FA+FB) with lateral flow reader, data considerably noisy
Excerpt: As explained above, after development the strips show two different zones, a first one (zone A) at which the sensing material (indicator reservoir) has been deposited, and a second one (zone B) in which the released dye is collected that could travel with the solvent front (see FIGS. 2, 7).
In case of absence of a sulfonamide, the second zone (zone B in FIG. 7) should show minimum signal. In case of presence, the fluorescence in that zone should correlate with analyte concentration. The amount of dye released can be quantified with a fluorescence reader with appropriate excitation and emission wavelengths or by taking pictures under proper light excitation conditions. Strips were prepared using a Hi-Flow nitrocellulose paper from Millipore®. […]
Afterwards, the strips were dipped into 150 μL of raw milk spiked with various amounts of STZ, developed and let dried at room temperature. […] Afterwards, the fluorescence histograms were registered with a lateral flow reader and a home-made housing equipped with an LED (λexc 505 nm) as excitation source and filters (532 nm cut-off and 550 nm long-pass) that can be fitted to a conventional digital camera. […] FIG. 6 c) (luminance of dye released in second zone and FIG. 6 d) (ratio of luminance) allows to compare the reader results with those obtained by extracting the luminance from images taken with a camera. […]

[3] = system: rabbit antisera against the hapten sulfathiazole (STZ), capping antibody; assay: Fluorescence of supernatants of M4-A1@B (SRB-loaded, antibody-gated MCM-41) suspensions after adding STZ prepared in milk; format: binding; conditions: M4-A1@B suspension in PBS, STZ solutions prepared in milk, λem=585 nm, λexc=560 nm, logistic fit
Protocol: The pores of the particles were filled with the dye sulforhodamine B (SRB). With the aim of loading the maximum amount of dye into the MCM-41 scaffold, a solution of the dye SRB sodium salt (2 mmol L^−1) was prepared in acetonitrile. Then, 2 portions of 12.0 mL were added to 300 mg of each MCM-41 nano- or microparticle material, yielding a suspension with a concentration of 0.8 mmol dye (g solid)^−1. The suspension was stirred for 24 h at room temperature. Two fractions of each type of material (2×40 mL) were centrifuged (5 min at 6000 rpm) and concentrated in a final volume of 1.5 mL. Thereafter, volumes of 0.14 mL and 0.7 mL of hapten solution (0.02 and 0.01 mmol) in DMF were added, arriving at final suspensions of 0.2 and 0.1 mmol (g solid)^−1. The resulting suspensions were stirred for 5.5 h at room temperature. Finally, the suspensions were centrifuged (5 min at 6000 rpm), and the solids obtained were washed with acetonitrile (0.75 mL), isolated by centrifugation, and dried at 35° C. in vacuum during 12 h. […]
The fluorescence enhancement caused by STZ at different concentrations was assessed in milk as well. […] Then, 6 μL of STZ solutions of different concentrations were added to the other fractions, the vials shaken by hand for 20 s and centrifuged before measuring the fluorescence of the supernatants in a fluorometer (λem=585 nm, λexc=560 nm).

[4] = system: rabbit antisera against the hapten sulfathiazole (STZ), capping antibody; assay: Fluorescence of supernatants of M7-A1@B (BODIPY-PEG-loaded, antibody-gated) suspensions in milk; format: binding; conditions: M7-A1@B suspension in milk, 10 min, 535 nm (λexc=515 nm), logistic fit
Protocol: as §1
In an attempt to avoid the extraction process, and with the aim to compare the effect of different dyes to M4-A1 @B, respectively, first of all the material M7-A1@B was tested in absence and in presence of several amounts of STZ following similar a procedure as explained previously. For that purpose, two independent experiments were performed, using in one case milk provided from FOSS stored in the fridge (6 d) and fresh milk from Poland (1 d in the fridge). […] Then, 20 μL of STZ solutions of different concentrations were added to the rest of the fractions (80 μL), the vials were shaken in the thermomixer at 800 rpm for 10 min, centrifuged and the fluorescence of the supernatants measured at 535 nm with λexc=515 nm (FIG. 9).

[5] = Dye partitioning from water/milk to CHCl3; format: physicochemical; conditions: phase transfer from water/milk to CHCl3
Protocol: as §1

[6] = M7-A1@B in raw milk, CHCl3 phase, 10 min reaction, 538 nm (λexc=515 nm)
[7] = M7-A1@B, increased number of washing cycles of the material before use

IC50 [1, 6] [ppb]	IC50 [1, 7] [ppb]	IC50 [2]	IC50 [4] [ppb]	SMILES	LOQ [1, 6] [ppb]	LOQ [1, 7] [ppb]	IC20, i.e. limit of quantification (LOQ) [3] [ppb]	IC50 [3] [ppb]	limit of quantification (LOQ) [4] [ppt]	dye partitioning coefficient [5]
16.2±6.9	4.4±1.7	–	–	Nc1ccc(S(=O)(=O)Nc2ccccn2)cc1 [SPY, sulfapyridine]	4.6±2.2	0.78±0.38	–	–	–	–
0.8±0.1	0.28±0.15	below 1 ppb	1.5±1.4	Nc1ccc(S(=O)(=O)Nc2nccs2)cc1 [STZ, sulfathiazole]	0.5±0.1	0.02±0.01	87±8	172±12	65±18	–
–	–	–	–	CCN(CC)c1ccc2c(-c3ccc(S(=O)(=O)O)cc3S(=O)(=O)[O-])c3ccc(=[N+](CC)CC)cc-3oc2c1 [sulforhodamine B]	–	–	–	–	–	too low to undergo efficient phase transfer
